Test results published in ChEMBL document CHEMBL1122436, “Structure-activity studies of dermorphin. Synthesis and some pharmacological data of dermorphin and its 1-substituted analogues” (J Med Chem, 1983).

What was measured:
Format in all cases: functional
Cavia porcellus [1] = organism: Cavia porcellus; experiment: Inhibition of electrically evoked twitches in guinea pig ileum relative to morphine.
Mus musculus = organism: Mus musculus; experiment: Analgesic activity in mice by using hot plate method
Cavia porcellus [2] = organism: Cavia porcellus; experiment: Inhibition of twitches in guinea pig ileum

Compound | Relative potency (Cavia porcellus [1]) | ED50 (Mus musculus) | IC50 (Cavia porcellus [2])
C[C@@H](NC(=O)[C@H](N)Cc1ccccc1)C(=O)N[C@@H](Cc1ccccc1)C(=O)NCC(=O)N[C@@H](Cc1ccc(O)cc1)C(=O)N1CCC[C@H]1C(=O)N[C@@H](CO)C(N)=O | 0.0042 | >0.001 M/kg | 
C[C@H](N)C(=O)N[C@H](C)C(=O)N[C@@H](Cc1ccccc1)C(=O)NCC(=O)N[C@@H](Cc1ccc(O)cc1)C(=O)N1CCC[C@H]1C(=O)N[C@@H](CO)C(N)=O | 0.0017 | 6.1e-05 M/kg | 
C[C@@H](NC(=O)[C@@H](N)Cc1ccccc1)C(=O)N[C@@H](Cc1ccccc1)C(=O)NCC(=O)N[C@@H](Cc1ccc(O)cc1)C(=O)N1CCC[C@H]1C(=O)N[C@@H](CO)C(N)=O | 0.026 | 1.55e-05 M/kg | 
COc1ccc(C[C@H](N)C(=O)N[C@H](C)C(=O)N[C@@H](Cc2ccccc2)C(=O)NCC(=O)N[C@@H](Cc2ccc(O)cc2)C(=O)N2CCC[C@H]2C(=O)N[C@@H](CO)C(N)=O)cc1 | 40.5 | 6e-05 M/kg | 
CC(=O)N[C@@H](Cc1ccc(O)cc1)C(=O)N[C@H](C)C(=O)N[C@@H](Cc1ccccc1)C(=O)NCC(=O)N[C@@H](Cc1ccc(O)cc1)C(=O)N1CCC[C@H]1C(=O)N[C@@H](CO)C(N)=O | 0.0044 | >0.001 M/kg | 
CSCC[C@H](NC(=O)[C@H](Cc1ccccc1)NC(=O)CNC(=O)[C@@H](C)NC(=O)[C@@H](N)Cc1ccc(O)cc1)C(N)=O | 30 |  | 2.5 nM
C[C@@H](NC(=O)[C@@H](N)Cc1ccc(O)cc1)C(=O)N[C@@H](Cc1ccccc1)C(=O)NCC(=O)N[C@@H](Cc1ccc(O)cc1)C(=O)N1CCC[C@H]1C(=O)N[C@@H](CO)C(N)=O [DERMORPHIN] | 1440 | 9.5e-07 M/kg | 0.052 nM
CN1CC[C@]23c4c5ccc(O)c4O[C@H]2[C@@H](O)C=C[C@H]3[C@H]1C5 [MORPHINE] |  | 1.7e-06 M/kg | 
